Values belong to the compound of their own block, whether it stands above or below them. Active and inactive are the calls of the source.
Experiments:
Coagulation factor XII = molecular target: T1, Coagulation factor XII (Homo sapiens, UniProt P00748); type: functional;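 also: activated factor XIIa alpha cleaving a fluorogenic AMC peptide substrate; inhibitor potency from loss of enzyme activity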
T1 sequence (P00748 whole entry): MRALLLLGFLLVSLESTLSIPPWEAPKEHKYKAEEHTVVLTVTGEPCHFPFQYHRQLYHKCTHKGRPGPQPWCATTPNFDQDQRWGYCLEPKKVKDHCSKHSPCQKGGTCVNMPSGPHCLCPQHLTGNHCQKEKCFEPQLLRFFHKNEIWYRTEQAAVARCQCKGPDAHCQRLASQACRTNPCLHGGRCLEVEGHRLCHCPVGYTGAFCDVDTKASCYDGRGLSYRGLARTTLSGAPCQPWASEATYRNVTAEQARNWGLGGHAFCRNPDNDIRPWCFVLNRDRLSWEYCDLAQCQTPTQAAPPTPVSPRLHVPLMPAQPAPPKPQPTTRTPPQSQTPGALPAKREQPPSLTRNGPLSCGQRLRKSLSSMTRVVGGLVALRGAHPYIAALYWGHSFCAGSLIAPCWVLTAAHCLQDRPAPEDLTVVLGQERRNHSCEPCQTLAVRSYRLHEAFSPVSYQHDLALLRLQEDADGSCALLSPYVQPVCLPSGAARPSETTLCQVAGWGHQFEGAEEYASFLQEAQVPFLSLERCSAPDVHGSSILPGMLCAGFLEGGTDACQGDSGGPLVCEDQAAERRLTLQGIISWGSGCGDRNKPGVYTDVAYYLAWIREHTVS

Fatty acid synthase [1] = molecular target: T2, Fatty acid synthase (Homo sapiens, UniProt P49327); assay: FAS thioesterase domain inhibitors, dose response, biochemical, endpoint fluorescence intensity, uHTS hits (AID 624327); type: functional;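 also: fluorescence from hydrolysis of an O-methyl fluorescein acyl ester substrate by the enzyme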
Fatty acid synthase [2] = molecular target: T2, Fatty acid synthase; assay: FAS thioesterase domain inhibitors, dose response, biochemical, kinetic fluorescence intensity (AID 624326); type: functional;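 also: rate of fluorescence rise from hydrolysis of a fluorogenic O-methyl fluorescein ester substrate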
[3] = molecular target: FAD-linked sulfhydryl oxidase ALR (Homo sapiens, UniProt P55789); assay: inhibitors of human ALR sulfhydryl oxidase, dose response, biochemical, H2O2 detection, luminescence, cherry-pick (AID 493248)
H9c2 = assay: cells; type: functional, cell-based; conditions: Rattus norvegicus, H9c2, Myocardium;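 also: confirmatory concentration-response retest of ultra-high-throughput screening hits for modulation of myocardial damage; cell death induced by hydrogen peroxide oxidative stress; compound pretreatment for 60 min then peroxide exposure for 2 h; potency is for protecting the cells against peroxide damage rather than for killing them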
[4] = molecular target: T3, Corticotropin-releasing factor receptor 2/Corticotropin-releasing factor-binding protein (Homo sapiens, UniProt P24387+Q13324); assay: activators of CRF receptor 2 with binding protein – uHTS hits, confirmation (AID 602473); type: functional; conditions: read-out: EC50_Mean
T3 sequence (Q13324 whole entry): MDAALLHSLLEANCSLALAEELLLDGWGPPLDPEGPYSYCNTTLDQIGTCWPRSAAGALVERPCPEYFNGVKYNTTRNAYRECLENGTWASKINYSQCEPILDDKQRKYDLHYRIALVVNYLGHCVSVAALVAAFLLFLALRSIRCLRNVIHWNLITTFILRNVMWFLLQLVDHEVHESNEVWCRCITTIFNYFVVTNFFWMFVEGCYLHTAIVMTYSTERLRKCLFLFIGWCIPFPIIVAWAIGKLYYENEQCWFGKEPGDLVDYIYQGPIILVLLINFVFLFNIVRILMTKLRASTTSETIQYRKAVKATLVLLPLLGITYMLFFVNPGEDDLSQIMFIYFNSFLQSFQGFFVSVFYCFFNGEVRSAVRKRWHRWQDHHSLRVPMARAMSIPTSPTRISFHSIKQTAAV
T3 sequence (P24387 whole entry): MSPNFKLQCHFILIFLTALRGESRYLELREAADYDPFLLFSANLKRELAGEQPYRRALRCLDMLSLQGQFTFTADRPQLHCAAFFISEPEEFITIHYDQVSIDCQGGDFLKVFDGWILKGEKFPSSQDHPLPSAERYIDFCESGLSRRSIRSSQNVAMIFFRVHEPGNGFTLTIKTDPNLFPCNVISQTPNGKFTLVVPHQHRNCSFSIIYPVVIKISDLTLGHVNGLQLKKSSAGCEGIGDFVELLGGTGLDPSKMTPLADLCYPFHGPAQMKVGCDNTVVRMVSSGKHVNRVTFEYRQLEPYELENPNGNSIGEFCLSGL

[5] = LGR2 antagonists, dose response, cell-based, HEK293, CRE-luciferase reporter, cherry pick, set 2 (AID 743343); type: functional;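 also: transfected cells were stimulated with diluted bursicon conditioned medium after compound addition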
[6] = MC4R antagonists, dose response, counter-screen for LGR2 antagonist project, cell-based, plate reader, cherry pick (AID 743444); type: functional;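 also: transfected HEK 293 cells stimulated with alpha-MSH peptide; potency of inhibitors of the alpha-MSH evoked signal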
Paired box protein Pax-8 = Paired box protein Pax-8 (Homo sapiens, UniProt Q06710); assay: inhibitors of PAX8-driven TPO luciferase reporter, dose response, RMG-I cells, cherry-pick (AID 687027); type: functional, cell-based;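 also: luciferase reporter driven by Pax8 target thyroperoxidase promoter measured by SteadyGlo luminescence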
[7] = cytotoxicity in OVCAR8 ovarian cancer cells, dose response, PAX8 project, cell-based, plate reader, dry powder samples (AID 743197); type: functional; conditions: OVCAR-8
[8] = NIH:OVCAR-3 ovarian cancer cell cytotoxicity, dose response, PAX8 inhibitor project, plate reader, dry powder samples (AID 743044); type: functional, cell-based
[9] = molecular target: T4, Calpain-2 catalytic subunit (Sus scrofa, UniProt P43367); assay: pig calpain II inhibitor potency, dose response, biochemical, fluorogenic peptide substrate (AID 1420); type: functional
T4 sequence (P43367 whole entry): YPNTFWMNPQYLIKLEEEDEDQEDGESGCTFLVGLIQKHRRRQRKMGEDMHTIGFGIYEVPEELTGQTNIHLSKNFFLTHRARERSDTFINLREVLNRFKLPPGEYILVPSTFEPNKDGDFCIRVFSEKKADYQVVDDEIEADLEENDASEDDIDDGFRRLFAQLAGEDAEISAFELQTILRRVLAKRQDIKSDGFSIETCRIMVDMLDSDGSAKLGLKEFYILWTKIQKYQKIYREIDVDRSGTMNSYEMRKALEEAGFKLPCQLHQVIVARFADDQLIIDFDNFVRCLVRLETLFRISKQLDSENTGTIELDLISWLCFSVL

[10] = P. falciparum Dd2 growth inhibitors, dose response, SYBR Green, cherry-picked samples (AID 1159567); type: functional, cell-based

T2 sequence (P49327 whole entry, the tested form may be a part): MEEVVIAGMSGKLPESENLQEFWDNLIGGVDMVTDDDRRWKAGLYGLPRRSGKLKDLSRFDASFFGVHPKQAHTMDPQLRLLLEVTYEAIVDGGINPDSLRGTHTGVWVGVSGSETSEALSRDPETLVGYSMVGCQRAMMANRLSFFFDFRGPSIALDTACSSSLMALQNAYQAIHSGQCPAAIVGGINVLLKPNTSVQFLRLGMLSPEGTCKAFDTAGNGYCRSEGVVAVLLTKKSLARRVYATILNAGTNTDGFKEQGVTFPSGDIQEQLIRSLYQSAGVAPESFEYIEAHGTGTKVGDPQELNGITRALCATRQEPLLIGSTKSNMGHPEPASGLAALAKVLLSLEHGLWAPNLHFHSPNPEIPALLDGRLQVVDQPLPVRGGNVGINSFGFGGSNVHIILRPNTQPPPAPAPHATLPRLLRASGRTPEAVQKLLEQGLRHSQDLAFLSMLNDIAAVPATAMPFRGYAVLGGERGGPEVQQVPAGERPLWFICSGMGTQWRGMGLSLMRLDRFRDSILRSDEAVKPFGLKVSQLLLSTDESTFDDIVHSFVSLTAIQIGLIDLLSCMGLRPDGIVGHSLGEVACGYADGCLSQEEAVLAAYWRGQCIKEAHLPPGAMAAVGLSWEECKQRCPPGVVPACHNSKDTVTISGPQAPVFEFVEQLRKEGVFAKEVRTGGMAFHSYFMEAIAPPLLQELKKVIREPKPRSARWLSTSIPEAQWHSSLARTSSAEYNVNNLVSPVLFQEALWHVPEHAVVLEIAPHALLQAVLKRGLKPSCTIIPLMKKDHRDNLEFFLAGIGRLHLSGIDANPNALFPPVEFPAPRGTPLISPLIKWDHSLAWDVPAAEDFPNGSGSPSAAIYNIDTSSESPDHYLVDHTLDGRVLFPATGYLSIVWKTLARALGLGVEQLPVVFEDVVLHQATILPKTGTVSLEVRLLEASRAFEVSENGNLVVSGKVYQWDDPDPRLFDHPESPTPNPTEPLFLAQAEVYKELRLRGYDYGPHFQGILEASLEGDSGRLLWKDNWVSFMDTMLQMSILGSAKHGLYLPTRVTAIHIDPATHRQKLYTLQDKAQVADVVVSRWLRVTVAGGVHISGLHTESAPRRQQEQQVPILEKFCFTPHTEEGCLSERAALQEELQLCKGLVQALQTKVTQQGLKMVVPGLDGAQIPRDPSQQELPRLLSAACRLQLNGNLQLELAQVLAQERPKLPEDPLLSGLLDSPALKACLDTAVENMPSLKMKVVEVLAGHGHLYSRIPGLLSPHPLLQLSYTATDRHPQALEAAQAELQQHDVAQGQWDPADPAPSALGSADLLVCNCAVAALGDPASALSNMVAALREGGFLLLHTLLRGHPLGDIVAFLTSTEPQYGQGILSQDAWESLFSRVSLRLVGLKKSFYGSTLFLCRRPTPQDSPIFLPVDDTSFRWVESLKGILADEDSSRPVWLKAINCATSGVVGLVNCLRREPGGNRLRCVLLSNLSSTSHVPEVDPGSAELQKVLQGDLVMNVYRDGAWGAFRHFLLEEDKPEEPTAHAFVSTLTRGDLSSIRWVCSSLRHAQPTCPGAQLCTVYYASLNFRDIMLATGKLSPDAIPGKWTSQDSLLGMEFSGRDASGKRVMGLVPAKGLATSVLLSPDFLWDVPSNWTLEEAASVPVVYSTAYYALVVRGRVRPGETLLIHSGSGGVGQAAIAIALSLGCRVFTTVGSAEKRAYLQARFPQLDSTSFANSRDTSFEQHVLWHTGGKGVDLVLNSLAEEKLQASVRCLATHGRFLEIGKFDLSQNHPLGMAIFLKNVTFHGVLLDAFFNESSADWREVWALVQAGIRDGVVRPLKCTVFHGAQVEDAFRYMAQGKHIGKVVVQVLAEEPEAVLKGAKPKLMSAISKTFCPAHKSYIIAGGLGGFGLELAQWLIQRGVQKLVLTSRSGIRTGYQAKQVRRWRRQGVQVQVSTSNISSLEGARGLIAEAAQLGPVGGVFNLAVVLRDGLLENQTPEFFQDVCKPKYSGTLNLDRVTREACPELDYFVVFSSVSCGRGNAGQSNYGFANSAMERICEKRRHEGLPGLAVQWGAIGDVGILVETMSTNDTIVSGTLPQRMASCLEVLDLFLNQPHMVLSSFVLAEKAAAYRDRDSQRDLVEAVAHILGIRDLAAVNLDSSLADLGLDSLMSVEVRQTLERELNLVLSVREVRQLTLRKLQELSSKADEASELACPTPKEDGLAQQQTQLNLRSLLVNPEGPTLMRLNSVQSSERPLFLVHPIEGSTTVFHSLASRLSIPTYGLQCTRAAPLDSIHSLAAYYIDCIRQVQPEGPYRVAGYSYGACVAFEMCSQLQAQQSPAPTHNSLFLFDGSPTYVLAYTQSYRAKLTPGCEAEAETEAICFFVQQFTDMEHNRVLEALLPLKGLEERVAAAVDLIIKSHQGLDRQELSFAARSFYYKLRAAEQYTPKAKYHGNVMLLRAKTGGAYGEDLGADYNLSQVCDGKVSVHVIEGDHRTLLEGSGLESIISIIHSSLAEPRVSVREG
Chain of Paired box protein Pax-8 (Q06710 whole entry): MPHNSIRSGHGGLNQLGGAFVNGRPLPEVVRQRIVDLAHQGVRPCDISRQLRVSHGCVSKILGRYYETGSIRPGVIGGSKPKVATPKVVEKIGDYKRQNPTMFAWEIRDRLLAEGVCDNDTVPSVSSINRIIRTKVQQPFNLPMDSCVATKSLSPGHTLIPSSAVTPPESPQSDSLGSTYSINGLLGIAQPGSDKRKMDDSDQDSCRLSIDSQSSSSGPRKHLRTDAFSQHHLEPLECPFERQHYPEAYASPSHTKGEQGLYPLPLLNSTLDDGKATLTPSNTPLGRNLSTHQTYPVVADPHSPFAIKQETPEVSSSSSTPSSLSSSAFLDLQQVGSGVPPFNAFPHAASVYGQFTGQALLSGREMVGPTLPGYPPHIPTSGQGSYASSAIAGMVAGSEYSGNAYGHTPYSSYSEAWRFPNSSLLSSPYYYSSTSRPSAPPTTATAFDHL
Chain of FAD-linked sulfhydryl oxidase ALR (P55789 whole entry): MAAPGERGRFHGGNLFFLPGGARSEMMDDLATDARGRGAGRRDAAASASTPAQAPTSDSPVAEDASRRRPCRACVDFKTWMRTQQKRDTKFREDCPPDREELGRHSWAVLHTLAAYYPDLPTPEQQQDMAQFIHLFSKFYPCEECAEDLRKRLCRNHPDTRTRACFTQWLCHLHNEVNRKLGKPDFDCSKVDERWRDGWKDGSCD

- IC50 (Coagulation factor XII): > 50 µM (inactive)
SMILES: [O-][S+](NC1CCCCC1)C12CC3CC(CC(C3)C1)C2 (configuration not stated)

- IC50 (Fatty acid synthase [1]): 13.1 µM (active)
- IC50 (Fatty acid synthase [2]): 12.4 µM (active)
SMILES: O=C(Cn1nc(-c2ccco2)ccc1=O)Nc1ccc(Cl)c(Cl)c1

- IC50 (Coagulation factor XII): 18 µM (active)
SMILES: O=C(Oc1ccc2c(=O)c(Cl)coc2c1)c1ccncc1

- IC50 (Coagulation factor XII): > 50 µM (inactive)
- AC50 [3]: 1.49 µM (active)
SMILES: CC(C)(C)c1ccc(Oc2ccc(NC(=O)CCCC(=O)O)cn2)cc1

- IC50 (Coagulation factor XII): > 50 µM (inactive)
SMILES: O=C(O)CCN1C(=O)C2C3c4ccccc4C(c4ccccc43)[C@@H]2C1=O (some centres not stated)

SMILES: CCOC(=O)C1CCN(C(=O)c2ccc3c(=O)n4nc(Nc5ccccc5OC)sc4nc3c2)CC1
- IC50 (H9c2): > 79 µM (inactive)
- IC50 (Fatty acid synthase [1]): 12.4 µM (active)
- IC50 (Fatty acid synthase [2]): 11.8 µM (active)

- EC50 [4]: > 53 µM (inactive)
- IC50 (Fatty acid synthase [1]): 2.04 µM (active)
- IC50 (Fatty acid synthase [2]): 2.26 µM (active)
SMILES: O=C(C[C@H]1C[C@H](C(=O)N2CCOCC2)[C@@]2(CCC3CCCC3)c3[nH]c4ccc(Cl)cc4c3CCN2C1=O)NCCN1CCOCC1

- IC50 (Fatty acid synthase [1]): 9.51 µM (active)
- IC50 (Fatty acid synthase [2]): 8.79 µM (active)
SMILES: CC(C)(C)c1ccc(C(=O)N2CCC2(C)C(=O)NS(=O)(=O)c2ccc(C#N)cc2)cc1 (configuration not stated)

SMILES: OC1CCC(Nc2ccn3nc(-c4cccc(OCc5ccccc5)c4)cc3n2)CC1 (configuration not stated)
- AC50 [5]: 34.3 µM (active)
- AC50 [6]: 37.1 µM (active)

SMILES: C[C@@H]1CCCCO[C@@H](CN(C)Cc2ccc(Cl)c(Cl)c2)[C@H](C)CN([C@H](C)CO)C(=O)c2cc(NS(=O)(=O)c3ccc(F)cc3)ccc2O1
- AC50 (Paired box protein Pax-8): 8.2 µM (active)
- AC50 [7]: > 70 µM (inactive)

SMILES: C[C@@H]1CN([C@H](C)CO)C(=O)c2cc(NC(=O)Nc3ccccc3)ccc2O[C@@H](C)CCCCO[C@H]1CN(C)C(=O)Nc1ccc(C(F)(F)F)cc1
- AC50 (Paired box protein Pax-8): 10.8 µM (active)
- AC50 [8]: 46.2 µM (active)
- AC50 [7]: > 70 µM (inactive)

SMILES: C[C@H](CO)N1C[C@H](C)[C@H](CN(C)S(=O)(=O)c2ccc(F)cc2)OCCCC[C@H](C)Oc2ccc(NC(=O)Nc3ccc(F)cc3)cc2C1=O
- AC50 (Paired box protein Pax-8): 7.09 µM (active)
- AC50 [7]: > 70 µM (inactive)

SMILES: C[C@@H]1CN([C@H](C)CO)C(=O)c2cc(NC(=O)Nc3ccccc3)ccc2O[C@@H](C)CCCCO[C@@H]1CN(C)CC1CCCCC1
- AC50 (Paired box protein Pax-8): 5.42 µM (active)
- AC50 [8]: 34.3 µM (active)
- AC50 [7]: 53.5 µM (active)

- IC50 [9]: 9.01 µM (not active)
- IC50 (Coagulation factor XII): > 50 µM (inactive)
SMILES: CO/N=C/c1ccc(Sc2ccccc2N)c([N+](=O)[O-])c1

SMILES: COc1cccc(C#Cc2ccc([C@@H]3[C@@H](C#N)N(C(=O)c4ccccn4)[C@H]3CO)cc2)c1
- AC50 [10]: 3.29 µM (active)

SMILES: C[C@@H]1CN([C@H](C)CO)C(=O)c2c(c3ccccc3n2C)-c2ccccc2CO[C@H]1CN(C)S(=O)(=O)c1ccsc1
- AC50 [10]: 4.22 µM (active)

SMILES: COc1ccc(C#Cc2ccc3c(c2)[C@@H]2[C@@H](CCN2C(=O)C2CCCC2)[C@H](CO)N3)cc1
- AC50 [10]: 3.97 µM (active)
